Results: paper PMC10154443, “Peptide-based PET imaging agent of tumor TIGIT expression” (EJNMMI Research, 2023)
Where a SMILES comes first, the peptide text is derived from it. [ ]: non-standard residue; d: D form. The star is where a group is joined. DOTA = O=C(O)CN1CCN(CC(=O)O)CCN(CC(=O)*)CCN(CC(=O)O)CC1; Ahx = NCCCCCC(=O)O

Assays:
[1] = tested on: 4T1 cells; assay: cell uptake experiment, 4T1 cells; type: cell-based, murine
Procedure: (§1) For cell uptake experiments, 4T1 and A375 cells were incubated with ^68Ga-DOTA-^DTBP-3 at different time points (15, 30, 60 and 120 min), respectively. Then, the cells were washed 3 times with cold PBS, and 0.1 M NaOH solution was used to lyse the cells and collected for γ-count.

[2] = tested on: 4T1 tumor-bearing BALB/c mice; type: in vivo
Procedure: (§2) Female BALB/c mice of 4–5 weeks were purchased from Beijing Biotechnology Co., Ltd. (Beijing, China). The 4T1 murine cancer model was established by the injection of 3 × 10^5 cells/150 μl into the front right limbs of female BALB/c mice. Experiments started when the tumors reached a volume of approximately 250–350 mm^3.
Female BALB/c tumor-bearing mice with subcutaneous 4T1 xenografts were randomly divided into 2 groups (n = 9 for the experimental group, and n = 3 for the blocking group), and then were injected with 3.70 MBq of ^68Ga-DOTA-^DTBP-3 via the tail vein. At different time points (0.5, 1 and 2 h post-injection for the experimental group, 0.5 h post-injection for the blocking group), the mice were euthanized, and the tumor, main organs (muscle, bone, large intestine, small intestine, stomach, kidney, spleen, liver, lung, heart, brain) and blood were weighed and counted by a γ counter. The results are expressed as percentage injected dose per gram of tissue (% ID/g), and the values were calculated based on signal decay correction and normalization to external ^68Ga standards.

[3] = tested on: 4T1 tumor-bearing BALB/c mice; type: in vivo; remark: listed apart in the source
Procedure: as §2
PET images were acquired on a micro-PET scanner (InliView-3000B, Minfound, Hangzhou, China). Mice bearing subcutaneous tumors were anesthetized with isoflurane (1.0–1.5%) and then were injected with about 5.55 MBq of ^68Ga-DOTA-^DTBP-3 via the tail vein. In the blocking group, tumor-bearing BALB/c were pretreated with the 40-fold excess of ^DTBP-3 for 0.5 h, and then injected equal dose of radiotracer with the above groups. Static imaging (15 min) was collected at different time points (0.5, 1 and 2 h post-injection).

[4] = tested on: A375 cells; assay: cell uptake experiment, A375 cells; type: cell-based, human; details: A375 cells (low TIGIT expression), at 0.5 h; time points 15, 30, 60, 120 min; γ-count
Procedure: as §1

With `CC(C)C[C@@H](NC(=O)[C@@H](CCCNC(=N)N)NC(=O)[C@@H](Cc1c[nH]cn1)NC(=O)[C@@H](Cc1c[nH]c2ccccc12)NC(=O)[C@@H](Cc1c[nH]cn1)NC(=O)[C@@H](Cc1ccccc1)NC(=O)[C@H](NC(=O)[C@@H](Cc1ccc(O)cc1)NC(=O)CNC(=O)CNC(=O)CCCCCNC(=O)CN1CCN(CC(=O)O)CCN(CC(=O)O)CCN(CC(=O)O)CC1)[C@H](C)O)C(=O)N[C@H](CC(N)=O)C(=O)N1CCC[C@@H]1C(=O)O` [^68Ga-DOTA-^DTBP-3, metal not drawn] ({DOTA-Ahx}-GG[dY][dT][dF][dH][dW][dH][dR][dL][dN][dP]-OH; N-terminus and C-terminus assumed) as the molecule, how does the “cell uptake of radiotracer (highest)” value ([1]; 4T1 cells (high TIGIT expression), at 0.5 h, time points 15, 30, 60, 120 min, γ-count) read?
Its value is 8.41 ± 1.22%.

What about the “4T1 cellular uptake with excess unlabeled ^DTBP-3 (blocking)” value ([1]; 4T1 cells, excess unlabeled ^DTBP-3) of the same molecule?
The value was “could be blocked”.

And the “tumor-to-blood ratio (biodistribution)” value ([2]; 0.5 h post-injection)?
The value was “high”.

And the “tumor-to-muscle ratio (biodistribution)” value ([2]; 0.5 h post-injection)?
The value was “high”.

And the “clearance from the blood” value ([2]; mouse, in vivo)?
Its value is “quickly cleared”.

And the “tumor uptake on micro-PET” value ([3]; 4T1 tumor, 0.5 h after intravenous injection, about 5.55 MBq, n = 3)?
The value was 3.49 ± 0.14.

And the “tumor uptake on micro-PET, blocking group” value ([3]; 4T1 tumor-bearing mice pretreated with 40-fold excess unlabeled ^DTBP-3 for 0.5 h)?
The value was “no obvious uptake”.

What about the “time of peak uptake of tumor tissue” value ([3]; mouse, in vivo) of the same molecule?
The value was “about 0.5 h”.

And the “cell uptake of radiotracer (highest)” value [4]?
The value was 2.56 ± 0.19%.
